Experimental data: US20260216299A1, “Use of Cytoglobin in Preparation of Drug for Preventing and/or Treating Diabetes” (priority 2022, published 2026)

Columns and labels:
[1] = system: pancreatic tissue of C57BL/6J diabetic model mice; assay: H&E staining of pancreatic tissue sections; type: in vivo, C57BL/6J mice; conditions: acinar cell steatosis, islet morphology, inflammation; FIGS. 12A-12D
Description: (§1) The AUC for blood glucose changes within two hours post-glucose gavage was shown in FIG. 5, confirming impaired glucose tolerance in the DM group. • 2) Successfully modeled mice were divided into three groups based on no statistical difference in blood glucose within groups and statistical difference in blood glucose between groups: wherein the three groups are rhCygb treatment group (5 mg/kg subcutaneous injection), exendin-4 treatment group (50 μg/kg subcutaneous injection), and placebo group (0.1 mL PBS subcutaneous injection) (grouping without re-caging, mice remained in original cages), respectively.
(§2) The mice of placebo group, rhCygb treatment group, and EX-4 treatment group received daily subcutaneous injections of PBS, rhCygb, or EX-4, respectively for 2 months (frequency adjusted based on survival status of mice). […] Absorbance at 510 nm was measured using a microplate reader. Cholesterol content was calculated according to the formula: […]
The severity of lesions observed in the HE-stained pathological sections of each mouse was graded. This ordinal data was analyzed using the K Independent Samples non-parametric test in SPSS software, and the result indicated a statistically significant difference between groups. As SPSS lacks pairwise comparison for multiple independent samples, all data were ranked and converted into quantitative data, then subjected to one-way ANOVA.

[2] = system: C57BL/6J diabetic model mice; assay: Four blood lipid items in serum of treated mice (T-CHO, TG, HDL-C, LDL-C kits); type: in vivo, C57BL/6J mice; conditions: subcutaneous rhCygb 5 mg/kg or exendin-4 50 μg/kg, after 28 d of treatment
Description: as §1, §2
Serum from each treated C57BL/6J mouse was assayed using a total cholesterol assay kit. […] Absorbance at 510 nm was measured using a microplate reader. […] content was calculated according to the formula: […]
Serum from each treated C57BL/6J mouse was assayed using a triglyceride assay kit. […] Absorbance at 546 nm (A1) was measured using a microplate reader. […] Absorbance at 546 nm (A2) was measured again. […]

Substance: Exendin-4 [reference compound]
- pancreatic tissue morphology (H&E) [1]: persistent acinar steatosis similar to the PBS group
- total cholesterol levels ([2]; FIG. 8): statistically significant reduction in total cholesterol levels compared to the placebo group
- LDL-C levels ([2]; FIG. 11): statistically significant reduction in LDL-C levels compared to the placebo group
